Assay results published in PubChem BioAssay AID540268 (Broad Institute, 2011).
Active and inactive are the calls of the source. No rule for the calls is given here.

assay: reduced viability of parasite-Hsp90 expressing yeast – ATP luminescence, 48 h, cherry-picked samples, anti-malarial Hsp90 inhibitor project, dose response (AID 540268); details: yeast expressing the parasite Hsp90, ATP luminescence;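 as to activity change, negative = inhibition: 0% = neutral control wells and -100% = positive control wells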

| Structure (SMILES) | AC50 [µM] |
| --- | --- |
| O=C1C=CC(=O)N1CCCCCCCCCCN1C(=O)C=CC1=O | 0.837 |
| CSc1nnc2c3cc(F)ccc3n(C)c2n1 | 5.49 |
| Cc1ccc(N2C(=O)C3C4C=CC(CNC(=S)N5CCN(c6ccccc6)CC5)(O4)C3C2=O)cc1 (stereo not drawn) | 6.93 |
| OCCOCCn1c(C2CCCN2c2nc(-c3ccc(F)cc3)cs2)nc2cc(C(F)(F)F)ccc21 (stereo not drawn) | 7.92 |
| Cc1ccc(C(C[N+](=O)[O-])Sc2ccc(N)cc2)cc1 (stereo not drawn) | 6.83 |
| Cc1occc1-c1nnc(-c2cc([N+](=O)[O-])cc([N+](=O)[O-])c2)o1 | 2.4 |
| COc1ccc(Nc2cnn(-c3nc4ccccc4s3)c(=O)c2Cl)cc1 | 3.21 |
| COc1ccccc1C(=O)NNC(=S)NC(=O)c1cccs1 | 6.92 |
| CN(C)c1ccc(-n2cccc2/C=C/[N+](=O)[O-])cc1 | 4.83 |
| Cc1cc(C)c(S(=O)(=O)N2CCC(C(=O)NCc3ccc(Cl)cc3Cl)CC2)c(C)c1 | 0.835 |
| COc1ccccc1NC(=O)COC(=O)c1ccc([N+](=O)[O-])s1 | 3.02 |
| CCOC(=O)c1c(C)oc2c1c(C(c1cccnc1)N1CCOCC1)c(O)c1ccccc12 (stereo not drawn) | 5.35 |
| CC(C)(C)c1nnc(N/N=C/c2cc(Br)ccc2O)n(N)c1=O | 4.92 |
| COc1ccc(NC2CCN(C3CC(=O)N(c4ccc(F)c(Cl)c4)C3=O)CC2)cc1 (stereo not drawn) | 2.61 |
| CCCNC(=O)c1nnsc1S(=O)c1ccc(Cl)cc1 (stereo not drawn) | 1.53 |
| CCCCC(=O)NC(c1ccccc1OC)c1ccc2cccnc2c1O (stereo not drawn) | 4.45 |
| O=c1ccc(N=Nc2ccccc2)ccc1O | 1.48 |
| Cc1cc(/C=C2\SC(=S)NC2=O)c(C)n1-c1cccc(O)c1 | 8.7 |
| Oc1c(C(c2ccc(Cl)cc2)N2CCCC2)cc(Cl)c2cccnc12 (stereo not drawn) | 1.58 |
| Cc1onc(-c2ccccc2)c1C(=O)NC(=S)NNC(=O)c1ccccc1O | 2.24 |
| O=S(=O)(Nc1nc2ccccc2nc1N1CCN(c2ccccn2)CC1)c1ccc(Cl)cc1 | 8.25 |
| COc1ccc(CCN2C(=O)C=CC2=O)cc1OC | 1.41 |

| Structure (SMILES) | AC50 [µM] |
| --- | --- |
| CCS(=O)(=O)Nc1cccc(-c2cc(-c3ccccc3)c3cc(C)ccc3n2)c1 | 4.55 |
| Cc1ccc(NC(=S)N/N=C/c2ccc([N+](=O)[O-])s2)cc1 | 4.92 |
| COc1ccc(OC)c2c1C(=O)C(Cl)=C(Cl)C2=O | 1.64 |
| CC(CCc1ccccc1)NC(=O)c1ccc(Br)cc1 (stereo not drawn) | 4.71 |
| O=C(OC12CC3CC(CC(C3)C1)C2)c1ccc(NCc2cc(O)ccc2O)cc1 | 8.91 |
| Clc1ccc(COC(Cn2ccnc2)c2ccc(Cl)cc2Cl)c(Cl)c1 (stereo not drawn) | < 0.195 |
| O=C(/C=C/c1ccccc1)c1cc(Br)ccc(=O)c1O | 1.51 |
| O=C1C=CC(=O)N1c1ccc2c(c1)Cc1cc(F)ccc1-2 | < 0.195 |
| CCOC(=O)c1ccc(N2C(=O)CC(N3CCC(C(=O)OCC)CC3)C2=O)cc1 (stereo not drawn) | < 0.195 |
| O=C(/C=C/c1cc(Br)ccc1O)c1ccco1 | 5.35 |
| Cc1cccc(COC(=O)CCCNC(=O)c2ccc(Cl)cc2)c1 | 8.69 |
| COc1ccc(C)cc1N=Nc1ccc(O)c2ncccc12 | 1.18 |
| CCCC(=O)NC(c1cccs1)c1cc(Cl)c2cccnc2c1O (stereo not drawn) | 1.58 |
| CCOC(=O)C1CCCN(C2CC(=O)N(c3cccc(C(F)(F)F)c3)C2=O)C1 (stereo not drawn) | 4.24 |
| CCOc1ccc2c(ccc(/C=C/c3cc(C)c4cccnc4c3O)[n+]2C)c1 | 4.11 |
| CC(C)CC(=O)/C(=C\c1ccc(Cl)cc1Cl)n1cncn1 | 1.75 |
| COc1ccc(SN=C2C(C)=CC(=O)C=C2C)cc1 | 5.7 |
| Oc1c(Br)cc(Br)cc1C=NCc1ccc(F)cc1 | 8.5 |
| O=[N+]([O-])c1ccc(C=Nc2cccc3ccccc23)s1 | 8.33 |
| CC(C)OC(=O)c1ccc(NCc2cc(O)ccc2O)cc1Cl | 24.1 |
| COc1cc(/C=N/O)cc(Br)c1OCc1cccc(Cl)c1 | 8.2 |
| Oc1ccc(C=NN=C2c3ccccc3-c3ccccc32)c(O)c1 | 1.86 |

| Structure (SMILES) | AC50 [µM] |
| --- | --- |
| O=C1C(Cl)=C(NCCc2ccccc2)C(=O)c2ccccc21 | 0.556 |
| Cc1ccc(Nc2nc(N)c([N+](=O)[O-])c(N3CCCC(C)C3)n2)cc1C (stereo not drawn) | 3.73 |
| CC(C)(C)C(O)C(Oc1ccc(Cl)cc1)n1cncn1 (stereo not drawn) | < 0.195 |
| O=C(/C=C/c1ccc([N+](=O)[O-])cc1)c1ccccc(=O)c1O | 1.04 |
| CCCCC(=O)NC(c1cccc([N+](=O)[O-])c1)c1ccc2cccnc2c1O (stereo not drawn) | 2.62 |
| O=C(CCc1ccccc1)NC(c1cccs1)c1cc(Cl)c2cccnc2c1O (stereo not drawn) | 15.5 |
| Cc1ccc(NC(=O)c2cc(N3C(=O)C=CC3=O)ccc2N2CCOCC2)cc1Cl | < 0.195 |
| CCCCNc1nc(N)nc(-c2cc(Cl)ccc2O)n1 | 4.58 |
| O=C1CC(N2CCCN(C3CC(=O)N(c4ccc(F)cc4)C3=O)CC2)C(=O)N1c1ccc(F)cc1 (stereo not drawn) | 3.49 |
| COc1ccc2c(n1)Sc1nc3ccccc3nc1N2 | 12.1 |
| COC1CCC(OC2CC(C3(C)CCC4(CC(O)C(C)C(C(C)/C=C(\C)C(=O)C(C)CC(C)C(=O)O)O4)O3)OC3(OC(C4OC(O)(CO)C(C)CC4C)CC3C)C2C)OC1C (stereo not drawn) | 4.84 |
| CCc1ccc(S(=O)(=O)N(C(=O)c2ccncc2)c2ccc(OC(=O)c3ccncc3)cc2)cc1 | 1.28 |
| Clc1ccc(CCC(Cn2ccnc2)Sc2c(Cl)cccc2Cl)cc1 (stereo not drawn) | < 0.195 |
| CCC(C)Nc1ccc(NC(C)CC)cc1 (stereo not drawn) | 3.26 |
| Clc1ccc(C(Cn2ccnc2)OCc2csc3c(Cl)cccc23)c(Cl)c1 (stereo not drawn) | < 0.195 |
| CCCC(=O)NC(c1ccccc1Cl)c1ccc2cccnc2c1O (stereo not drawn) | 4.13 |
| CCCCCCCCCCCCCCCC[N+](C)(C)Cc1ccc(F)cc1 | 0.213 |
| O=C(N/N=C/c1cc(Cl)c(O)c(Cl)c1)c1cc2c(ccc3ccccc32)o1 | 3.54 |
| Cc1[nH]c2ccc(C(=O)N3CCN(c4cccc(Cl)c4)CC3)cc2c1C | 8.89 |
| CC1CC(C)C(=NNC(N)=O)C(C(O)CC2CCC(=O)NC2=O)C1 (stereo not drawn) | < 0.195 |
| CCCCOc1ccc(C(=O)NNC(=S)NC(=O)CC)cc1 | 4.2 |
| CCOc1cc(/C=C\[N+](=O)[O-])ccc1OCC(=O)Nc1ccccc1C | 2.61 |

| Structure (SMILES) | AC50 [µM] |
| --- | --- |
| CCN(CC)c1ccc(C(=C2C=CC(=[N+](CC)CC)C=C2)c2ccc(N(CC)CC)cc2)cc1 | 0.735 |
| Oc1c(C(c2ccccc2)N2CCOCC2)ccc2ccccc12 (stereo not drawn) | 6.53 |
| O=C(CCSc1ccc(Br)cc1)c1ccc(O)cc1 | 3.64 |
| CCC(=O)NC(c1ccc(Cl)cc1Cl)c1ccc2cccnc2c1O (stereo not drawn) | 3.96 |
| COc1cc(N(C)C)ccc1C=c1c2ccccc2n2c1cc(-c1ccccc1)[n+]2C | 7.55 |
| Cc1cc(N=Nc2ccccc2C(=O)O)c(C)c(C)c1O | 4.79 |
| N#Cc1c2ccc([N+](=O)[O-])cc2[n+]([O-])n1-c1ccccc1 | 2.1 |
| CCCCCCCCC/C(=N\O)c1ccccn1 | 3.65 |
| COc1ccc(C(C)(C)C)cc1NC(=O)Nc1ccc2c(c1)OCO2 | 8.96 |
| COc1ccccc1C(=O)NNC(=S)NC(=O)c1ccco1 | 2.41 |
| CSC(=S)NN=C(C)c1cccc(C)n1 | 15.6 |
| O=C(Nc1nnc(-c2ccc(F)cc2)o1)c1cc(Cl)sc1Cl | 2.43 |
| O=[N+]([O-])c1cc(CN2CCN(c3cccc(C(F)(F)F)c3)CC2)c2cccnc2c1O | 4.42 |
| O=C(NCCCCc1ccccc1)c1ccc(Br)cc1 | 4.42 |
| COc1cccc2c1C(=O)c1c(O)c3c(c(O)c1C2=O)CC(O)(C(=O)CO)CC3OC1CC(N(C)C)C(O)C(C)O1 (stereo not drawn) | 1.09 |
| COc1ccc2c(c1)CCc1c(C(=O)N3CCc4ccccc4C3)noc1-2 | 4.5 |
| C=CCn1c(C)cc(C(=O)CSc2nc3ccccc3c(=O)[nH]2)c1C | 3.28 |
| COc1ccc(C2=CC3=C(Br)C(=O)C(C)(OC(=O)c4cccs4)C(=O)C3=CO2)cc1 (stereo not drawn) | 4.28 |
| Cc1ccc(N=Cc2cc(Cc3ccccc3Cl)cc([N+](=O)[O-])c2O)c(O)c1 | 0.216 |
| O=C(C1CCN(C2CC(=O)N(c3cccc(Cl)c3)C2=O)CC1)N1CCCC1 (stereo not drawn) | 3.94 |
| Cc1cc(C)cc(N=Cc2ccc([N+](=O)[O-])s2)c1 | 3.94 |
| CCOC(=O)c1c(-n2c(C)cc(C=C3C(=O)NC(=S)NC3=O)c2C)sc2c1CCCC2 | 2.99 |

| Structure (SMILES) | AC50 [µM] |
| --- | --- |
| O=Nc1c(O)c2ccccc2c2ccccc12 | 1.57 |
| Oc1ccc(Cl)cc1Sc1cc(Cl)ccc1O | 3.07 |
| Cc1cc(N2CCN(c3cccc(C)c3C)CC2)nc(-c2ccccc2)n1 | 2.47 |
| CC(C)CCOc1cccc(OCC(=O)Nc2ccncc2)c1 | 4.84 |
| N/C(Cc1ccc(Cl)c(Cl)c1)=N\OC(=O)c1cccs1 | 2.22 |
| CC1=CC2C(C(O)CC3(C)C2CC(C)C32OCOC23COCO3)C2(C)C/C(=C\O)C(=O)C=C12 (stereo not drawn) | 3.13 |
| CCCC(=O)NC(c1ccc(Cl)cc1)c1ccc2cccnc2c1O (stereo not drawn) | 7.47 |
| CCOc1ccc(NCc2cc3c(C(C)(C)C)nn(-c4ccccc4)c3[nH]c2=O)cc1 | 18.1 |
| O=c1cc(CSc2ccc(Cl)cc2)nc(-c2ccccn2)[nH]1 | 16.6 |
| Cc1ccc2nc(-c3ccc(NS(C)(=O)=O)cc3)cc(-c3ccccc3)c2c1 | 2.95 |
| Cn1ncc2c(Nc3cccc(Cl)c3)nc(Nc3cccc(Cl)c3)nc21 | 2.82 |
| O=C1C=C(c2ccc(Cl)cc2)C(=O)N1Nc1ccccc1 | < 0.195 |
| O=[N+]([O-])c1ccc(NC(=S)NCCc2ccc(Cl)cc2)cc1 | 4.25 |
| Nc1cccc(Oc2c(F)c(F)c(Oc3cccc(N)c3)c(F)c2F)c1 | 9.03 |
| CC(=NNc1nc2ccccc2o1)c1ncccn1 | 1.33 |
| COc1ccccc1NS(=O)(=O)c1cc(C(=O)N2CC(C)CC(C)C2)ccc1C (stereo not drawn) | 5.81 |
| COC[C@H]1OC(=O)c2coc3c2[C@@]1(C)C1=C(C3=O)[C@@H]2CCC(=O)[C@@]2(C)C[C@H]1OC(C)=O | 0.215 |
| CCOC(=O)c1ccc(NC(=O)CC2C(=O)OCCN2CC)cc1 (stereo not drawn) | 4.28 |
| Cc1ccc(O)c(N=Nc2nccs2)c1 | 1.2 |
| O=C1/C(=C/c2ccncc2)CCC/C1=C\c1ccncc1 | 4.25 |

same assay, conditions: yeast expressing the parasite Hsp90, ATP luminescence, at 26 µM (top of the series)

| Structure (SMILES) | activity change, negative = inhibition |
| --- | --- |
| CN(C)c1ccc(-c2cc(O)c3ncccc3c2)cc1 | 26.4% (inactive) |
| COc1ccc(NC(=S)Nc2ccc3snnc3c2)cc1 | -20.2% (inactive) |
| CCOc1ccc(S(=O)(=O)NCc2ccccn2)c(C)c1C | 14.4% (inactive) |
| O=C(CSc1ccc(-c2ccccn2)nn1)Nc1ccccc1 | -18.1% (inactive) |
| O=C(CCN1C(=O)/C(=C/c2cccs2)SC1=S)NC1=NCCS1 | 60.4% (inactive) |
